Experimental data from US10301258B2, “Benzende sulfonamide derivatives as HIV integrase inhibitors” (priority 2014, dated 2019).
Entries after “also recorded” stand apart in the source; their conditions may differ.

What was measured:
HeLa cells = conditions: lentiviral vector screening, at high concentrations
Protocol: For the vector assay HeLa cells were utilized and the HIV-1 lentiviral vector screening was performed in a 24 well plate. […] As the negative control AZT was used, a positive control as vector only and blank as un-infected were additionally used. Again the concentration of DMSO was limited to 0.1%. Hela cells (˜3.2*10^5 cells/ml) were infected with HIV-1 lentiviral vector in the presence of the compound(s) tested and controls. After the first 24 hours of incubation at 37° C. (5% CO2), cells were replaced with fresh media containing test compounds and incubated for an additional 24 hrs. Cells were fixed with 4% paraformaldehyde in PBS and mounted in DAPI on glass slides for visualization and quantification. Images, of at least 2 fields per glass disk were taken with an Olympus 1X51 fluorescence microscope equipped with a camera.

HIV-1 lentiviral vector = HIV-1 lentiviral vector screening assay; type: cell-based; conditions: HeLa cells, compared with no drug
Protocol: For the vector assay HeLa cells can be utilized and the experiment can be performed in a suitable plate, such as a 24 well plate. […] A negative control, e.g., AZT, and a positive control as vector only and blank as un-infected are appropriately selected. Again, the concentration of DMSO was limited to 0.1%. Hela cells (˜3.2-10^5 cells/ml) were infected with HIV-1 lentiviral vector in the presence of the compounds to be tested and controls. After the first 24 hours of incubation at 37° C. (5% CO2), cells are replaced with fresh media containing test compounds and incubated for an additional 24 hrs. Cells are fixed with 4% paraformaldehyde in PBS and mounted in DAPI on glass slides for visualization and quantification. Images, of at least 2 fields per glass disk are obtained, such as images taken with an Olympus 1X51 fluorescence microscope equipped with a camera. EGFP fluorescence spanning an average area of 12*10^5 square pixels is quantified using Image J software, from which IC50 values can bee extrapolated using graph pad PRISM software.
For the vector assay HeLa cells were utilized and the HIV-1 lentiviral vector screening was performed in a 24 well plate. […] Cells were fixed with 4% paraformaldehyde in PBS and mounted in DAPI on glass slides for visualization and quantification. […]

[1] = tested on: HIV-1 integrase (C-terminal domain), eGFP-MBP-IN-WT; assay: cellular integrase assay (integrase screening assay, nuclear import inhibition); type: cell-based; conditions: HEK 293T cells transfected with eGFP-MBP-IN-WT, fluorescence microscopy, FIG. 1
Protocol: In assessing suitability of a compound according to any of the formulas herein, an integrase screening assay can be conducted. In the present case, an exemplary such assay is a cellular integrase assay. A cellular integrase assay can be performed in a 24 well plate. The assay is designed to test compounds in 3-fold serial dilutions (10, 3.3, 1.1 and 0.33 μM) with 0.1% DMSO. Negative and positive control included eGFP-MBP-IN-R262/3/6A, eGFP-MBP-IN-K236/240 and eGFP-MBP-IN-WT respectively supplemented with 0.1% DMSO. Refinement of the assay for optimal results is feasible. For example, refinement herein yields the following protocol. HEK 293T cells (˜0.4*10^5 cells/ml) are seeded and incubated at 37° C. (5% CO2) for ˜3 days on Poly-L-lysine treated glass coverslips until 80-90% confluent (˜3.2*10^5 cells/ml). Next, cells are transfected with 1 μg of eGFP-MBP-INR262/3/6A, eGFP-MBP-IN-K236/240 and eGFP-MBP-IN-WT DNA plasmid simultaneously with test compounds, at varying concentrations mentioned above, using lipofectamine 2000 transfection reagent (μL) at a ratio of 1:2 DNA plasmid to lipofectamine. After 4 hrs of incubation (at 37° C., 5% CO2), the lipofectamine mix is removed and replaced with fresh medium containing serum in the presence of the test compounds. […] Images may be prepared using an Olympus 1X51 fluorescence microscope equipped with a camera by way of example. […]

Cc1ccc(S(=O)(=O)NCCCNS(=O)(=O)c2ccc(C)cc2)cc1 [compound 535, 4-methyl-N-[3-(4-methylbenzenesulfonamido)propyl] benzene sulfonamide]
cellular toxicity (HeLa cells): without introducing cellular toxicity | inhibitory effect on HIV infectivity / HIV-1 replication, dose dependence (HIV-1 lentiviral vector; FIG. 2): exhibited an inhibitory effect in a dose dependent manor | inhibitory effect on HIV infectivity / HIV-1 replication, dose dependence (HIV-1 lentiviral vector; FIG. 2, listed as representative compound): clearly inhibited HIV-1 replication in a dose-dependent manor | inhibition of nuclear import of integrase (nuclear exclusion phenotype) [1]: nuclear exclusion of the fusion protein in majority of cells; also recorded: exhibited inhibition sufficient to prevent nuclear import of integrase; also recorded: clearly demonstrates inhibition of nuclear import of IN | inhibition of nuclear import of integrase (nuclear exclusion phenotype) ([1]; listed as representative compound): displayed inhibition of nuclear import of IN similar to that of the triple mutant chimeric IN
